# Reference: patent US11447486B2, “2-amino-benzimidazole derivatives and their use as 5-lipoxygenase and/or prostaglandin E synthase inhibitors” (INSTITUT PASTEUR KOREA, priority 2014, dated 2022)
# Key:
# human 5-LOX = biological target: T1, human 5-LOX (Homo sapiens, UniProt P09917); assay: 5-LOX enzyme activity, fluorescence method (5-HPETE, H2DCFDA); assay type: biochemical; conditions: read-out: 5-LO (IC50)
# T1 construct: purchased Cayman 60402; host or cells: insect cells (lysate)
# T1 sequence (P09917 1-674): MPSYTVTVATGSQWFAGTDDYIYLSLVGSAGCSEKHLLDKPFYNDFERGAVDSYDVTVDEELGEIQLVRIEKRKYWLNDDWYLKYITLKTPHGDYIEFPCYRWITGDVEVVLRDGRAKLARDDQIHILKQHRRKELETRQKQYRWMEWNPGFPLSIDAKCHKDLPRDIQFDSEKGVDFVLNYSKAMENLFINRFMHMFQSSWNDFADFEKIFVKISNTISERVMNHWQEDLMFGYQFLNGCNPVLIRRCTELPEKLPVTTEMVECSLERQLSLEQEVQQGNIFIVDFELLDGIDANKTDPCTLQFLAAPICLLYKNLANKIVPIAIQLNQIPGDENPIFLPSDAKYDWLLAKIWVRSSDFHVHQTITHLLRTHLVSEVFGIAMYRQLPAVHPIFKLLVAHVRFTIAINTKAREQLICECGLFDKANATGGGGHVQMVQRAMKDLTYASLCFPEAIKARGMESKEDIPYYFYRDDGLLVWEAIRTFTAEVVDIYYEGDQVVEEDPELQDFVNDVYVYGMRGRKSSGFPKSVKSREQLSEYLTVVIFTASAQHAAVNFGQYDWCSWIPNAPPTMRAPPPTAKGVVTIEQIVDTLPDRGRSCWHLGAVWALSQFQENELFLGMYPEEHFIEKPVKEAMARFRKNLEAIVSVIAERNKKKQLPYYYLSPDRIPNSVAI
# Outline: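 Compound (0.5 nM to 10 uM) pre-incubated 5 min with enzyme; reaction started with ATP (100 uM final) and arachidonic acid (3 uM final). All steps at room temperature, fluorescence read-out.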
# [1] = test system: Rat basophilic leukemia (RBL) cells; assay: LTB4 secretion assay in RBL (rat basophilic leukemia cells); assay type: cell-based; conditions: Rattus norvegicus, RBL
# Outline: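 Cells seeded 2×10^4/well the day before, then pre-incubated 15 min at 37 °C in EMEM/0.5% FBS with compound (5 nM to 100 uM). Stimulation with 2.5 uM arachidonic acid plus 5 uM A23187 (final) for 10 min at 37 °C; LTB4 in supernatant quantified by EIA.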
Compound,IC50 (human 5-LOX),EC50 [1]
COc1cc(Oc2ccc(Cl)cn2)ccc1CNc1nc2ccc(N)cc2n1C [Compound 327],< 1 µM,< 10 µM
CN(C(=O)c1ccc(CNc2nc3ccc(NC4COC4)cc3n2C)cc1)c1ccc(Cl)cn1 [Compound 320],< 1 µM,> 20 µM
COC(c1ccc(CNc2nc3ccc(NC4COC4)cc3[nH]2)cc1)c1ccccn1 (stereo not shown) [Compound 189],< 1 µM,> 20 µM
CN(C)c1nc2ccc(NCc3ccc(N(Cc4ncc[nH]4)c4ccc(F)cc4)cc3)cc2[nH]1 [Compound 216],< 1 µM,< 10 µM
Cn1c(NCc2ccc(Oc3ncc(Br)cn3)cc2)nc2ccc(N)cc21 [Compound 361],< 1 µM,< 10 µM
Cn1c(NCc2ccc(Oc3ncc(Cl)c4ccccc34)cc2)nc2ccc(N)cc21 [Compound 399],< 1 µM,< 10 µM
CC(C)(CO)Nc1ccc2[nH]c(NCc3ccc(Cl)cc3F)nc2c1 [Compound 31],< 1 µM,> 20 µM
Cn1c(NCc2ccc(Oc3ccc(Cl)cn3)cc2)nc2ccc(NC3CN(C(N)=O)C3)cc21 [Compound 404],< 1 µM,> 20 µM
Cn1c(NCc2ccc(Oc3ncc(Cl)cn3)cc2)nc2ccc(Nc3n[nH]cc3C(N)=O)cc21 [Compound 488],1 to 10 µM,> 20 µM
CN(C)c1nc2ccc(NCc3ccc(-c4cccc(=O)[nH]4)cc3)cc2[nH]1 [Compound 221],< 1 µM,> 20 µM
FC(F)(F)Oc1ccc(OC2CCN(c3ccc4nc(NCCN5CCOCC5)[nH]c4c3)C2)cc1 (stereo not shown) [Compound 143],< 1 µM,10 to 20 µM
Cn1c(NCc2ccc(Oc3ccc4cccc(Cl)c4n3)cc2)nc2ccc(N)cc21 [Compound 421],< 1 µM,< 10 µM
Cn1c(NCc2ccc(Oc3ncc(Cl)cn3)cc2)nc2ccc(NC(N)=O)cc21 [Compound 429],> 10 µM,10 to 20 µM
CC(Cc1ccc(Cl)cc1Cl)Nc1nc2ccc(N)cc2n1Cc1ccccc1 (stereo not shown) [Compound 140],< 1 µM,< 10 µM
Cn1c(NCc2ccc(Oc3ncc(Cl)cn3)c(Cl)c2)nc2ccc(N)cc21 [Compound 391],< 1 µM,< 10 µM
CN(C)C(=O)c1cnc(Oc2ccc(CNc3nc4ccc(N)cc4n3C)cc2)nc1 [Compound 456],< 1 µM,> 20 µM
CC(C)(C(=O)c1ccc(CNc2nc3ccc(N)cc3[nH]2)cc1)C(F)(F)F [Compound 205],< 1 µM,< 10 µM
CCC(Nc1nc2ccc(Nc3cc(C(F)(F)F)n(C)n3)cc2n1C)c1ccc(Oc2cnc(C(F)(F)F)cn2)cc1 (stereo not shown) [Compound 522],> 10 µM,< 10 µM
Cn1c(NCc2ccc(Oc3ncc(Cl)cn3)cc2)nc2ccc(NCCN3CCOCC3)cc21 [Compound 379],< 1 µM,< 10 µM
Cn1c(NCc2ccc(Oc3ccc(Cl)cc3)cn2)nc2ccc(N)cc21 [Compound 297],< 1 µM,< 10 µM

Compound,IC50 (human 5-LOX),EC50 [1]
Cn1c(NCc2ccc(Oc3ncc(Cl)cc3Cl)cc2)nc2ccc(N)cc21 [Compound 321],< 1 µM,10 to 20 µM
Cn1c(NCc2ccc(Oc3ccc(C(F)(F)F)nc3)cc2)nc2ccc(N)cc21 [Compound 223],< 1 µM,< 10 µM
Cn1c(NCc2ccc(Oc3cc(Cl)ncn3)cc2)nc2ccc(N)cc21 [Compound 393],< 1 µM,< 10 µM
Cn1ccc(Nc2ccc3nc(NCc4ccc(Oc5ncc(Cl)cn5)cc4)[nH]c3c2F)n1 [Compound 480],< 1 µM,< 10 µM
Nc1ccc2nc(N3CCC(O)C3)n(Cc3ccc(Oc4ccc(Cl)cc4)cc3)c2c1 (stereo not shown) [Compound 206],< 1 µM,< 10 µM
Cc1cc(Oc2ccc(Cl)cn2)cc(C)c1CNc1nc2ccc(N)cc2n1C [Compound 334],< 1 µM,10 to 20 µM
Cn1c(NCc2ccc(Nc3ncc(Cl)cn3)cc2)nc2ccc(N)cc21 [Compound 458],< 1 µM,< 10 µM
Cn1c(NCc2ccc(Oc3ccc4c(Cl)cccc4n3)cc2)nc2ccc(N)cc21 [Compound 424],< 1 µM,< 10 µM
Cn1c(NCc2ccc(Oc3ccnc4c(Cl)cccc34)cc2)nc2ccc(N)cc21 [Compound 387],< 1 µM,< 10 µM
Cn1c(NCc2ccc(Oc3ncc(Cl)c4ccccc34)cc2)nc2ccc(NC3COC3)cc21 [Compound 400],< 1 µM,< 10 µM
Cn1c(NCc2ccc(Oc3ncc(OC(F)(F)F)cn3)cc2)nc2ccc(N)cc21 [Compound 410],< 1 µM,< 10 µM
Nc1ccc2nc(-n3cc(F)cn3)n(CCOc3ccc(OC(F)(F)F)cc3)c2c1 [Compound 78],> 10 µM,10 to 20 µM
Cn1c(NCc2ccc(Oc3ncc(C(F)(F)F)cn3)cc2)nc2c(F)cc(NC3COC3)cc21 [Compound 551],< 1 µM,< 10 µM
Cn1ccnc1C(=O)c1ccc(CNc2nc3ccc(N)cc3[nH]2)cc1 [Compound 173],< 1 µM,> 20 µM
CC(Nc1nc2ccc(N)cc2n1C)c1ccc(Oc2ccc(Cl)cn2)cc1 (stereo not shown) [Compound 260],< 1 µM,< 10 µM
COc1ccc(Oc2ccc(CNc3nc4ccc(NC5COC5)cc4n3C)cc2)nc1 [Compound 331],< 1 µM,< 10 µM
CN1CCN(CCNc2ccc3nc(NCc4ccc(Oc5ccc(Cl)cn5)cc4)n(C)c3c2)CC1 [Compound 333],< 1 µM,< 10 µM
Nc1ccc2nc(N)n(Cc3ccc(OCc4ccc(Cl)cn4)cc3)c2c1 [Compound 254],< 1 µM,< 10 µM
CC(C)c1cc(CNc2nc3ccc(NC4COC4)cc3n2C)ccc1Oc1ncc(Cl)cn1 [Compound 396],< 1 µM,< 10 µM
Cn1c(NCc2ccc(Oc3ncc(Cl)cn3)cc2)nc2ccc(NCC(O)c3ccc(F)cc3)cc21 (stereo not shown) [Compound 372],< 1 µM,< 10 µM

Compound,IC50 (human 5-LOX),EC50 [1]
Cn1c(NCc2ccc(Oc3ccc(Cl)cc3)cc2)nc2ccc(N3CC(O)C3)cc21 [Compound 192],< 1 µM,< 10 µM
CN(C)c1nc2ccc(NC3COC3)cc2n1CCOc1ccc(Cl)cc1 [Compound 40],< 1 µM,10 to 20 µM
FC1(F)CN(c2ccc3nc(NCc4ccc(Oc5ccc(Cl)cc5)cc4)[nH]c3c2)C1 [Compound 242],1 to 10 µM,< 10 µM
Cn1c(NCc2ccc(Oc3ncc(-c4ccc(Cl)cc4)cn3)cc2)nc2ccc(N)cc21 [Compound 460],< 1 µM,< 10 µM
CCn1c(NCc2ccc(Oc3ccc(Cl)cn3)cc2)nc2ccc(N)cc21 [Compound 265],< 1 µM,< 10 µM
FC(F)(F)Oc1ccc(OCCn2c(N3CCCC3)nc3ccc(N4CCC4)cc32)cc1 [Compound 84],< 1 µM,< 10 µM
Cn1c(NCc2ccc(Oc3ncc(Cl)cn3)cc2)nc2ccc(NC(=N)N)cc21 [Compound 441],> 10 µM,> 20 µM
Nc1ccc2[nH]c(NC(=O)c3ccc(F)cc3)nc2c1 [Compound 26],1 to 10 µM,> 20 µM
Cn1c(N2CCC(Oc3ccc(F)cc3)CC2)nc2cc(N)ccc21 [Compound 35],1 to 10 µM,> 20 µM
NC(=O)CNc1nc2ccc(N)cc2n1Cc1ccc(Oc2ccc(Cl)cc2)cc1 [Compound 217],< 1 µM,< 10 µM
Cn1c(NCc2ccc(Oc3ccc(Cl)cn3)c(F)c2)nc2ccc(N)cc21 [Compound 267],< 1 µM,< 10 µM
Nc1ccc2nc(NCc3ccc4c(c3)NCCC4)[nH]c2c1 [Compound 162],< 1 µM,< 10 µM
CC(C)(O)Cn1c(NCc2ccc(Oc3ccc(Cl)cc3)cc2)nc2ccc(N)cc21 [Compound 209],< 1 µM,< 10 µM
Cn1c(NCc2ccc(Oc3cn4ccc(Cl)cc4n3)cc2)nc2ccc(NC3COC3)cc21 [Compound 455],< 1 µM,< 10 µM
Nc1ccc2c(c1)nc(-n1cc(F)cn1)n2CCOc1ccc(OC(F)(F)F)cc1 [Compound 82],> 10 µM,10 to 20 µM
CC(C)(CO)Nc1nc2ccc(N)cc2n1Cc1ccc(Oc2ccc(Cl)cc2)cc1 [Compound 187],< 1 µM,< 10 µM
Nc1ccc2nc(N)n(Cc3ccc(Oc4ccc(Cl)cc4)nc3)c2c1 [Compound 240],< 1 µM,< 10 µM
Nc1ccc2nc(N)n(Cc3ccc(Oc4ccc(Cl)cn4)c(F)c3)c2c1 [Compound 248],< 1 µM,< 10 µM
Nc1cnc2nc(N3CCCC3)n(CCOc3ccc(OC(F)(F)F)cc3)c2c1 [Compound 83],1 to 10 µM,> 20 µM
